These are literature values, as cited in PMC4621921 (Oncotarget, 2015).

Details of data set [1]: method as in PMID 23169517, PMID 24002501. The settings on record: clinical studies.
The test system of data set [2] is castration-resistant prostate cancer. More on the design: method as in earlier work. Particulars: phase 3, castration-resistant prostate cancer; no statistically significant improvement.
For the next data set, the system named is prostate cancer. More on the design: method as in PMID 23169517. The settings on record: phase 2, prostate cancer.
The conditions of data set [3]: in vivo.

SMILES strings stand for the structures. Read-outs that look alike come from different tables or passages of the source.

Consider `COc1cc2nccc(Oc3ccc(NC(=O)C4(C(=O)Nc5ccc(F)cc5)CC4)cc3)c2cc1OC` [cabozantinib], for which the “common AEs” value in data set [1] was “fatigue, decreased appetite, and diarrhea”. In addition, in data set [2], the “median OS” value was 11 months. Also, the “evaluable patients with regression in soft tissue lesions” value in the data set on prostate cancer is given as 72%. In addition, in the data set on prostate cancer (versus 5.9 weeks with placebo), the PFS was 23.9 weeks.

Turning to `COc1cc2c(Oc3ccc(NC(=O)C4(C(=O)Nc5ccc(F)cc5)CC4)cc3F)ccnc2cc1OCCCN1CCOCC1` [foretinib], the “common AEs” value in data set [3] is “fatigue, hypertension, and gastrointestinal toxicities”.

For `C[C@]12C=CC(=O)C=C1CC[C@@H]1[C@@H]2C(=O)C[C@@]2(C)[C@H]1CC[C@]2(O)C(=O)CO` [prednisone], in data set [2], the “median OS” value was 9.8 months.
